From PubChem BioAssay AID2060503 (Molecular Pharmacology Branch, DTP, NCI, 2025)
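Note: spheroids exposed to agents for 7 days before readout.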
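Throughout, for viability, T/C: percent viability relative to DMSO vehicle control taken as 100%.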

What follows are compounds tested on 817829-284-R-J1-PDC complex spheroids, viability (assay: Anticancer human tumor 817829-284-R-J1-PDC patient-derived colon adenocarcinoma cell line growth inhibition [GQUAD]). Conditions: curve of first compound; second compound 10 µM.
In short: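 Viability of tumor cells grown as complex spheroids with endothelial and stromal cells, exposed to drug combinations. Top concentration at or near clinical Cmax (else 10 microM), diluted in half-log increments.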
In the case of `CC(C)n1c(=O)n(C)c2cnc3cc(F)c(-c4ccc(OCCCN5CCCCC5)nc4)cc3c21` + Cc1[nH]c2ccc(F)cc2c1-c1nc2c3cccnc3c3ncccc3c2[nH]1, the IC50 is reported as 549 nM.
For `CCc1c2c(nc3ccc(O)cc13)-c1cc3c(c(=O)n1C2)COC(=O)[C@]3(O)CC` + Cc1[nH]c2ccc(F)cc2c1-c1nc2c3cccnc3c3ncccc3c2[nH]1, the IC50 was less than 0.999 nM.
Work on `COc1cc(C2c3cc4c(cc3C(OC3OC5COC(C)OC5C(O)C3O)C3COC(=O)C23)OCO4)cc(OC)c1O` (configuration not stated) + Cc1[nH]c2ccc(F)cc2c1-c1nc2c3cccnc3c3ncccc3c2[nH]1 yielded an IC50 of 44.8 nM.
Work on `COc1cccc2c1C(=O)c1c(O)c3c(c(O)c1C2=O)CC(O)(C(=O)CO)CC3OC1CC(N)C(O)C(C)O1` (configuration not stated) + Cc1[nH]c2ccc(F)cc2c1-c1nc2c3cccnc3c3ncccc3c2[nH]1 yielded an IC50 of less than 31.6 nM.
`Cc1cccc(N(C)C(=O)C2C(O)CCN2c2nc(C)cc(C(F)(F)F)c2C#N)c1` (configuration not stated) + Cc1[nH]c2ccc(F)cc2c1-c1nc2c3cccnc3c3ncccc3c2[nH]1 gave an IC50 greater than 10000 nM.
Work on `O=C(c1cc(Cc2n[nH]c(=O)c3ccccc23)ccc1F)N1CCN(C(=O)C2CC2)CC1` + Cc1[nH]c2ccc(F)cc2c1-c1nc2c3cccnc3c3ncccc3c2[nH]1 yielded an IC50 of 1070 nM.

Same assay, conditions: second compound 0.0316 µM; first compound 0.000999 µM; stronger effect = lower value
In the case of `CCc1c2c(nc3ccc(O)cc13)-c1cc3c(c(=O)n1C2)COC(=O)[C@]3(O)CC` + Cc1[nH]c2ccc(F)cc2c1-c1nc2c3cccnc3c3ncccc3c2[nH]1, the viability, T/C is reported as 65.2%.

Same assay, conditions: second compound 0.0316 µM; first compound 0.00316 µM; stronger effect = lower value
Compound `CCc1c2c(nc3ccc(O)cc13)-c1cc3c(c(=O)n1C2)COC(=O)[C@]3(O)CC` + Cc1[nH]c2ccc(F)cc2c1-c1nc2c3cccnc3c3ncccc3c2[nH]1 has a viability, T/C of 28.1%.

Same assay, conditions: second compound 0.0316 µM; first compound 0.00999 µM; stronger effect = lower value
`CCc1c2c(nc3ccc(O)cc13)-c1cc3c(c(=O)n1C2)COC(=O)[C@]3(O)CC` + Cc1[nH]c2ccc(F)cc2c1-c1nc2c3cccnc3c3ncccc3c2[nH]1 showed a viability, T/C of 30.3%.

Same assay, conditions: second compound 0.0316 µM; first compound 0.0316 µM; stronger effect = lower value
In the case of `C=CC(=O)N1CCN(c2nc(=O)n(-c3c(C)ccnc3C(C)C)c3nc(-c4c(O)cccc4F)c(F)cc23)C(C)C1` (configuration not stated) + Cc1[nH]c2ccc(F)cc2c1-c1nc2c3cccnc3c3ncccc3c2[nH]1, the viability, T/C is reported as 106%.
For `CC(C)n1c(=O)n(C)c2cnc3cc(F)c(-c4ccc(OCCCN5CCCCC5)nc4)cc3c21` + Cc1[nH]c2ccc(F)cc2c1-c1nc2c3cccnc3c3ncccc3c2[nH]1, the viability, T/C was 120%.
`CCc1c2c(nc3ccc(O)cc13)-c1cc3c(c(=O)n1C2)COC(=O)[C@]3(O)CC` + Cc1[nH]c2ccc(F)cc2c1-c1nc2c3cccnc3c3ncccc3c2[nH]1 was tested, and the viability, T/C was 13.1%.
For `COc1cc(C2c3cc4c(cc3C(OC3OC5COC(C)OC5C(O)C3O)C3COC(=O)C23)OCO4)cc(OC)c1O` (configuration not stated) + Cc1[nH]c2ccc(F)cc2c1-c1nc2c3cccnc3c3ncccc3c2[nH]1, the viability, T/C was 110%.
`COc1cccc2c1C(=O)c1c(O)c3c(c(O)c1C2=O)CC(O)(C(=O)CO)CC3OC1CC(N)C(O)C(C)O1` (configuration not stated) + Cc1[nH]c2ccc(F)cc2c1-c1nc2c3cccnc3c3ncccc3c2[nH]1 was tested, and the viability, T/C was 106%.
With `Cc1cccc(N(C)C(=O)C2C(O)CCN2c2nc(C)cc(C(F)(F)F)c2C#N)c1` (configuration not stated) + Cc1[nH]c2ccc(F)cc2c1-c1nc2c3cccnc3c3ncccc3c2[nH]1 the viability, T/C was 103%.
`O=C(c1cc(Cc2n[nH]c(=O)c3ccccc23)ccc1F)N1CCN(C(=O)C2CC2)CC1` + Cc1[nH]c2ccc(F)cc2c1-c1nc2c3cccnc3c3ncccc3c2[nH]1 gave a viability, T/C of 103%.

Same assay, conditions: second compound 0.0316 µM; first compound 0.0999 µM; stronger effect = lower value
For `CCc1c2c(nc3ccc(O)cc13)-c1cc3c(c(=O)n1C2)COC(=O)[C@]3(O)CC` + Cc1[nH]c2ccc(F)cc2c1-c1nc2c3cccnc3c3ncccc3c2[nH]1, the viability, T/C was 8.01%.

Same assay, conditions: second compound 0.0316 µM; first compound 0.1 µM; stronger effect = lower value
`C=CC(=O)N1CCN(c2nc(=O)n(-c3c(C)ccnc3C(C)C)c3nc(-c4c(O)cccc4F)c(F)cc23)C(C)C1` (configuration not stated) + Cc1[nH]c2ccc(F)cc2c1-c1nc2c3cccnc3c3ncccc3c2[nH]1 showed a viability, T/C of 81%.
`CC(C)n1c(=O)n(C)c2cnc3cc(F)c(-c4ccc(OCCCN5CCCCC5)nc4)cc3c21` + Cc1[nH]c2ccc(F)cc2c1-c1nc2c3cccnc3c3ncccc3c2[nH]1 showed a viability, T/C of 82.6%.
Work on `COc1cc(C2c3cc4c(cc3C(OC3OC5COC(C)OC5C(O)C3O)C3COC(=O)C23)OCO4)cc(OC)c1O` (configuration not stated) + Cc1[nH]c2ccc(F)cc2c1-c1nc2c3cccnc3c3ncccc3c2[nH]1 yielded a viability, T/C of 67.2%.
In the case of `COc1cccc2c1C(=O)c1c(O)c3c(c(O)c1C2=O)CC(O)(C(=O)CO)CC3OC1CC(N)C(O)C(C)O1` (configuration not stated) + Cc1[nH]c2ccc(F)cc2c1-c1nc2c3cccnc3c3ncccc3c2[nH]1, the viability, T/C is reported as 31.4%.
With `Cc1cccc(N(C)C(=O)C2C(O)CCN2c2nc(C)cc(C(F)(F)F)c2C#N)c1` (configuration not stated) + Cc1[nH]c2ccc(F)cc2c1-c1nc2c3cccnc3c3ncccc3c2[nH]1 the viability, T/C was 86.2%.
`O=C(c1cc(Cc2n[nH]c(=O)c3ccccc23)ccc1F)N1CCN(C(=O)C2CC2)CC1` + Cc1[nH]c2ccc(F)cc2c1-c1nc2c3cccnc3c3ncccc3c2[nH]1 showed a viability, T/C of 85.7%.

Same assay, conditions: second compound 0.0316 µM; first compound 0.316 µM; stronger effect = lower value
For `C=CC(=O)N1CCN(c2nc(=O)n(-c3c(C)ccnc3C(C)C)c3nc(-c4c(O)cccc4F)c(F)cc23)C(C)C1` (configuration not stated) + Cc1[nH]c2ccc(F)cc2c1-c1nc2c3cccnc3c3ncccc3c2[nH]1, the viability, T/C was 109%.
`CC(C)n1c(=O)n(C)c2cnc3cc(F)c(-c4ccc(OCCCN5CCCCC5)nc4)cc3c21` + Cc1[nH]c2ccc(F)cc2c1-c1nc2c3cccnc3c3ncccc3c2[nH]1 showed a viability, T/C of 84.8%.
Compound `CCc1c2c(nc3ccc(O)cc13)-c1cc3c(c(=O)n1C2)COC(=O)[C@]3(O)CC` + Cc1[nH]c2ccc(F)cc2c1-c1nc2c3cccnc3c3ncccc3c2[nH]1 has a viability, T/C of 4.19%.
Compound `COc1cc(C2c3cc4c(cc3C(OC3OC5COC(C)OC5C(O)C3O)C3COC(=O)C23)OCO4)cc(OC)c1O` (configuration not stated) + Cc1[nH]c2ccc(F)cc2c1-c1nc2c3cccnc3c3ncccc3c2[nH]1 has a viability, T/C of 31.6%.
In the case of `COc1cccc2c1C(=O)c1c(O)c3c(c(O)c1C2=O)CC(O)(C(=O)CO)CC3OC1CC(N)C(O)C(C)O1` (configuration not stated) + Cc1[nH]c2ccc(F)cc2c1-c1nc2c3cccnc3c3ncccc3c2[nH]1, the viability, T/C is reported as 35.2%.
In the case of `Cc1cccc(N(C)C(=O)C2C(O)CCN2c2nc(C)cc(C(F)(F)F)c2C#N)c1` (configuration not stated) + Cc1[nH]c2ccc(F)cc2c1-c1nc2c3cccnc3c3ncccc3c2[nH]1, the viability, T/C is reported as 99.9%.
Compound `O=C(c1cc(Cc2n[nH]c(=O)c3ccccc23)ccc1F)N1CCN(C(=O)C2CC2)CC1` + Cc1[nH]c2ccc(F)cc2c1-c1nc2c3cccnc3c3ncccc3c2[nH]1 has a viability, T/C of 106%.

Same assay, conditions: second compound 0.0316 µM; first compound 1 µM; stronger effect = lower value
`C=CC(=O)N1CCN(c2nc(=O)n(-c3c(C)ccnc3C(C)C)c3nc(-c4c(O)cccc4F)c(F)cc23)C(C)C1` (configuration not stated) + Cc1[nH]c2ccc(F)cc2c1-c1nc2c3cccnc3c3ncccc3c2[nH]1 gave a viability, T/C of 74.4%.
`CC(C)n1c(=O)n(C)c2cnc3cc(F)c(-c4ccc(OCCCN5CCCCC5)nc4)cc3c21` + Cc1[nH]c2ccc(F)cc2c1-c1nc2c3cccnc3c3ncccc3c2[nH]1 showed a viability, T/C of 94.4%.
`COc1cc(C2c3cc4c(cc3C(OC3OC5COC(C)OC5C(O)C3O)C3COC(=O)C23)OCO4)cc(OC)c1O` (configuration not stated) + Cc1[nH]c2ccc(F)cc2c1-c1nc2c3cccnc3c3ncccc3c2[nH]1 gave a viability, T/C of 27.2%.
In the case of `COc1cccc2c1C(=O)c1c(O)c3c(c(O)c1C2=O)CC(O)(C(=O)CO)CC3OC1CC(N)C(O)C(C)O1` (configuration not stated) + Cc1[nH]c2ccc(F)cc2c1-c1nc2c3cccnc3c3ncccc3c2[nH]1, the viability, T/C is reported as 9.62%.
`Cc1cccc(N(C)C(=O)C2C(O)CCN2c2nc(C)cc(C(F)(F)F)c2C#N)c1` (configuration not stated) + Cc1[nH]c2ccc(F)cc2c1-c1nc2c3cccnc3c3ncccc3c2[nH]1 was tested, and the viability, T/C was 78%.
Compound `O=C(c1cc(Cc2n[nH]c(=O)c3ccccc23)ccc1F)N1CCN(C(=O)C2CC2)CC1` + Cc1[nH]c2ccc(F)cc2c1-c1nc2c3cccnc3c3ncccc3c2[nH]1 has a viability, T/C of 87.3%.

Same assay, conditions: second compound 0.0316 µM; first compound 3.16 µM; stronger effect = lower value
`C=CC(=O)N1CCN(c2nc(=O)n(-c3c(C)ccnc3C(C)C)c3nc(-c4c(O)cccc4F)c(F)cc23)C(C)C1` (configuration not stated) + Cc1[nH]c2ccc(F)cc2c1-c1nc2c3cccnc3c3ncccc3c2[nH]1 showed a viability, T/C of 106%.
